Experimental data from US11510886B2, “Metformin amino acid compounds and methods of using the same” (Laboratorios Silancs S.A. DE C.V., priority 2016, dated 2022).
Where two headings read alike, the source gives them in different places.

What was measured:
[1] = system: blood glucose level; experiment: Effect of metformin compounds on the glucokinetic profile after oral glucose overload; format: in vivo, Rat; conditions: rat, 750 mg/kg referred to metformin base, mean ± SD
[2] = terms of European Pharmacopeia 7.0 section 5.11
[3] = rat, in vivo, po, 250 mg/kg
[4] = for Body weight (g) On distribution day: before dosing
[5] = STZ-diabetic male rats, mean ± SD
[6] = diabetic rats, 14 days daily oral
[7] = system: rat model of streptozotocin-induced diabetes; experiment: Blood glucose levels in rat model of streptozotocin-induced diabetes, 14 days oral
[8] = system: rat model of streptozotocin-induced diabetes; conditions: about 18 hours after last administration, fasted; Dunnet test
[9] = Groups B-K, 250 mg/kg, Mean ± SD
[10] = before first TI/RI administration

## CC(C)[C@H](N)C(=O)O.CN(C)C(=N)NC(=N)N [Metformin valinate, metformin valinate]
[1]; 0.25 h post-glucose overload, *p<0.05 vs vehicle
  Blood glucose level, 0.25 h post-glucose overload: 102.50 ± 12.07 mg/dL
[1]; 0.5 h post-glucose overload
  Blood glucose level, 0.5 h post-glucose overload: 101.00 ± 14.90 mg/dL
[1]; 1 h post-glucose overload, *p<0.05 vs vehicle
  Blood glucose level, 1 h post-glucose overload: 100.25 ± 15.44 mg/dL
[1]; 2 h post-glucose overload
  Blood glucose level, 2 h post-glucose overload: 97.00 ± 14.54 mg/dL
[1]; 3 h post-glucose overload, *p<0.05, **p<0.01 vs vehicle
  Blood glucose level, 3 h post-glucose overload: 93.50 ± 18.91 mg/dL
[1]; 4 h post-glucose overload, *p<0.05 vs vehicle
  Blood glucose level, 4 h post-glucose overload: 86.50 ± 10.15 mg/dL
[1]; 6 h post-glucose overload
  Blood glucose level, 6 h post-glucose overload: 92.75 ± 5.56 mg/dL
[1]; pre-glucose overload, *p<0.05 vs vehicle
  Blood glucose level, pre-glucose overload: 90.25 ± 3.86 mg/dL
[2]; listed as 14. VALINE
  Physical form (hygroscopicity): Hygroscopic solid
[2]; listed as valine
  Physical form (hygroscopicity): hygroscopic
[3]
  AUC(0-24): 123.05 µg·h/mL
  Cmax: 13700 ng/mL
  Metformin base concentration in plasma, 0.5 h post-administration: 8.75 ± 0.50 µg/mL
  Metformin base concentration in plasma, 1 h post-administration: 11.56 ± 2.71 µg/mL
  Metformin base concentration in plasma, 2 h post-administration: 12.90 ± 2.38 µg/mL
  Metformin base concentration in plasma, 4 h post-administration: 13.70 ± 2.55 µg/mL
  Metformin base concentration in plasma, 8 h post-administration: 4.79 ± 0.38 µg/mL
  Metformin base concentration in plasma, 24 h post-administration: 0.21 ± 0.09 µg/mL
[4]; 750 mg/kg for five days
  macroscopic necropsy findings: small additional lobe
[4]; [9]
  Body weight (g) On administration day: 193.85 ± 7.65 g
  Body weight (g) On distribution day: 186.67 ± 11.37 g
[4]; Groups L-U, 750 mg/kg, Mean ± SD
  Body weight (g) On distribution day: 190.28 ± 6.26 g
[4]; Groups L-U, 750 mg/kg, first column of this head, Mean ± SD
  Body weight (g) On first administration day: 206.48 ± 10.52 g
[4]; Groups L-U, 750 mg/kg, second column of this head, Mean ± SD
  Body weight (g) On first administration day: 194.90 ± 4.71 g
[5]; baseline before STZ and before first TI/RI administration
  Absolute body weight, Day −3 (before STZ administration): 233.50 ± 9.71 g
[5]; [10]
  Absolute body weight, Day −1: 213.90 ± 16.31 g
  Absolute body weight, Day −2 (distribution of groups): 217.43 ± 14.43 g
[6]
  mortality: found dead on the day 9 of study
[7]; STZ-diabetic rats, before first TI/RI administration, mean ± SD, n.d. = all values beyond ULOD of glucometer (600 mg/dl), § n=1, ¢ n=2
  Blood glucose levels before TI/RI administration, Day −1: 592.00^§ ± n.d.^§ mg/dL
[7]; diabetic rats, 250 mg/kg as metformin base
  blood glucose levels 2 hours after administration on day 2 vs diabetic animals treated with vehicle: significantly lower blood glucose levels
[7]; rats, baseline before STZ and before first TI/RI administration, mean ± SD
  Blood glucose levels before TI/RI administration, Day −3 (before STZ administration): 120.00 ± 1.73 mg/dL
[8]
  plasma glucose levels at the time of sacrifice: significantly higher
